# Patent US6465466B1, “Uses of indolo-2 [2,3b] -quinoxalines” (priority 1995, dated 2002)
# Tests used:
# [1] = system: regeneration of liver tissue; test: In vivo toxicity: liver regeneration after partial hepatectomy (liver-somatic index); parameters: species or system rats
# Method: The in vivo toxicity of B-220 was tested in rats. A portion of the liver was removed (partial hepatectomy, PH) by surgery and the regeneration of liver tissue was studied. The regeneration was measured as liver-somatic index (LSI), in other words, the relative liver weight in percent of the body weight.
# AAF (2-acetylaminofluorene) is a very toxic substance which acts as a mito-inhibitor, i.e. inhibits cell division of normal liver cells.
# The results are shown in FIG. 3 wherein LSI is plotted against days after partial hepatectomy.
# bacterial strain TA 100 = test: Ames test, mutagenicity of MMS and EMS with and without B-220; assay type: cell-based, Salmonella; conditions: for mutagenicity of the mutagen alone (revertants/plate): TA 100, without B-220
# Method: The following example illustrates the fact that compound B-220 reduces the mutagenicity of potent mutagens in the bacterial mutagenicity test, the “Ames test”. In the test the bacterial strain TA 100 was used. […] These mutagens were MMS=Methylmethanesulphonate and EMS=Ethylmethanesulphonate. The results of the experiments carried out are shown graphically in FIGS. 2a and 2b. In the Figures revertants/plate, is plotted against microgram MMS and EMS, respectively, plus 70 μg B-220.
# test strain TA100 = test: Ames test, mutagenic potential of the substances, test strain TA100; assay type: cell-based, Salmonella; conditions: for anti-mutagenic potential (reduction of spontaneous background): TA100; for mutagenic potential (revertants/plate): TA100, with and without S9
# From the text: This example illustrates the mutagenic potential in the bacterial mutagenicity test, “Ames test”, with test strain TA100, of B-220 (FIG. 1a) and 9-OH-B-220 (FIG. 1b). S9 indicates the presence […] or absence (−S9) of a cellular enzymatic fraction capable to metabolize the tested substances. The metabolic activation is a liver fraction containing enzymes needed in metabolism. In the Figures revertants/plate, an intensity measurement of mutagenic activity, is plotted against μg B-220 and μg 9-OH-B-220.
# skin tumors = test: Skin tumor model, DMBA initiation and TPA promotion; assay type: in vivo, mice
# Method: The compounds used according to the present invention have been tested as regards the formation of tumors (skin tumors) for mice subjected to strong tumor initiating and strong tumor promotion conditions. […] Furthermore, if the administration of the compound used according to the present invention is terminated, the animals will develop the same number of tumors as in the positive control. This means that the original DNA injury remains and the tumor promoter which is administered continuously can give rise to a considerable development of tumors. Accordingly a compound used according to the present invention can stop the tumor process caused by potent tumor promoting agents in combination with potent tumor initiators.
# This example illustrates a tumor model which is based on in vivo tumor initiation with one does of dimethylbenzanthracene (DMBA) where after, a potent tumor promoter […] (TPA) was administered twice a week. After a number of weeks the skin tumors can be detected and followed during the study, After approximately 100 days (A) the positive controls reached the maximum, where after the total number declines due to the behavior of the animals. […] After six months exposure of B-220+TPA in the B-220 group, B-220 was no longer administered (B).
# [2] = system: human cell cultures of phagocytes; test: Luminol chemiluminescence in human phagocyte cultures; assay type: cell-based; conditions: dose dependent; intracellular, also seen extracellular; same effect as salt and free base
# From the text: In this test the effects of “B220” have been exposed to human cell cultures of phagocytes. Luminol reacts with the markers for oxidative stress, hydrogen peroxide or the superoxide ion, and generates light. […] “B220” has the same effect both in the form of salt and the free base.
# [3] = Whole body gamma-irradiation of mice; assay type: in vivo
# Method: Gamma-irradiation is a very potent agent which can induce oxidative stress, reduce body weight gain and shorten life span. In FIG. […] The human LD50 of gamma-irradiation os approximately 3 Gy.
# “B220” was administered intra peritoneal in corn oil 24 and 3 h before the irradiation.
# The body weight gain of each group is shown as percent of the body weight at the time of irradiation. A lower body weight gain is an indicator of a shorter life span in the long term perspective. Gamma-irradiation is a way to induce a premature aging which is also seen as gray fur in these mice.
# [4] = system: 8-hydroxy-2'-deoxyguanosine (8-OH-dG); test: 8-OH-dG formation in DNA after oral 2,7-dinitrofluorene; assay type: in vivo; conditions: rats pre-treated with B220, 2,7-dNF orally
# From the text: Oxidation of deoxyguanosine (dG), one of the bases in DNA, is an oxidative lesion of DNA related to oxidative stress. The reaction product between free radicals and dG is 8-hydroxy-2′-deoxyguanosine (8-OH-dG). This biomarker is a reaction product found in DNA, i.e. the oxidative stress is not only found as oxidants in the circulation or in the cytoplasm, but reaches the nucleus and reacts with DNA. In FIG. 8 results are shown when the urban air pollutant (result of incomplete combustion of fuels of vehicles) and carcinogen 2,7-dinitrofluorene (2,7-dNF) was administered orally to rats. In the metabolism, reactive intermediates were formed that oxidized dG to 8-OH-dG.
compound,measurement,setting,value
CN(C)CCn1c2ccc(O)cc2c2nc3ccccc3nc21,melting point,,269 to 270 °C
"CC(=O)Nc1ccc2c(c1)Cc1ccccc1-2 [AAF, 2-acetylaminofluorene, reference compound]","regeneration of liver tissue (liver-somatic index, LSI)","[1]; rats, days after partial hepatectomy",very slow
"CCOS(C)(=O)=O [EMS, Ethylmethanesulphonate, reference compound]",mutagenicity of the mutagen alone (revertants/plate),bacterial strain TA 100,strong mutagen
"Cc1cc2nc3c4cc(O)ccc4n(CCN(C)C)c3nc2cc1C [Example 9-OH-B-220, 2,3-Dimethyl-6-(2-dimethylaminoethyl)-9-hydroxy-6H-indolo[2,3-b]-quinoxaline]",anti-mutagenic potential (reduction of spontaneous background),test strain TA100,anti-mutagenic
same,mutagenic potential (revertants/plate),test strain TA100,non-mutagenic
Cc1cc2nc3c4ccccc4n(CCN(C)C)c3nc2cc1C [Example B-220],anti-mutagenic potential (reduction of spontaneous background),test strain TA100,anti-mutagenic
same,mutagenic potential (revertants/plate),test strain TA100,non-mutagenic
same,mutagenicity of EMS when B-220 is added,"bacterial strain TA 100; TA 100, EMS plus 70 μg B-220",reduced the mutagenicity but not as much as for MMS
same,mutagenicity of MMS when B-220 is added,"bacterial strain TA 100; TA 100, MMS plus 70 μg B-220",the mutagenicity disappears
same,"regeneration of liver tissue (liver-somatic index, LSI)","[1]; rat, in vivo",no difference from the controls
same,toxic effects in vivo,"[1]; rat, in vivo",did not show any toxic effects
same,skin tumors,skin tumors; after six months of B-220+TPA,very slight increase in tumors
same,skin tumors after B-220 no longer administered,"skin tumors; after six months, TPA continued, B-220 stopped",rapid increase of tumors
same,skin tumors,"skin tumors; approximately 100 days, B-220 one hour before TPA, DMBA-initiated",no tumors at all
same,carcinogenicity,skin tumors; skin tumor model,not a carcinogen
same,formation of hydrogen peroxide and superoxide ion generated by oxidase (chemiluminescence),[2],down regulates and even eliminates
same,protective effect (life span),"[3]; 8 Gy, administration after irradiation",protective effect similar to pre-treatment
same,protective effect (increased life span),"[3]; 8 Gy, intra peritoneal in corn oil 24 and 3 h before irradiation",protective effect
same,protective effect (life span),"[3]; 14 Gy, intra peritoneal in corn oil 24 and 3 h before irradiation",no protective effect
same,body weight gain,"[3]; lower doses, 1 and 6 Gy",increased body weight gain
same,oxidative stress (8-OH-dG in DNA),[4],down-regulated to levels lower than the controls
"COS(C)(=O)=O [MMS, Methylmethanesulphonate, reference compound]",mutagenicity of the mutagen alone (revertants/plate),bacterial strain TA 100,strong mutagen
